target: EP4 receptor (Homo sapiens (Human), UniProt P35408); test: Prostanoid receptor binding assay, hEP4 (membranes of transfected HEK 293(ebna) cells); settings: radioligand binding, HEK 293(ebna) membranes, 10 mM MES/KOH pH 6.0
Protocol: Prostanoid receptor cDNAs corresponding to full length coding sequences are subcloned into the appropriate sites of mammalian expression vectors and transfected into HEK 293(ebna) cells. HEK 293(ebna) cells expressing the individual cDNAs are grown under selection and individual colonies are isolated after 2-3 weeks of growth using the cloning ring method and subsequently expanded into clonal cell lines.
Transfected HEK 293(ebna) cells are maintained in culture, harvested and membranes are prepared by differential centrifugation, following lysis of the cells in the presence of protease inhibitors, for use in receptor binding assays. Prostanoid receptor binding assays (for DP1, DP2 (CRTH2), EP1, EP2, EP3-III, EP4, FP, IP, and TP) are performed in 10 mM MES/KOH (pH 6.0) (EPs, FP and TP) or 10 mM HEPES/KOH (pH 7.4) (DPs and IP), containing 1 mM EDTA, 2.5-30 mM divalent cation and the appropriate radioligand. Synthetic compounds are added in dimethylsulfoxide which is kept constant at 1% (v/v) in all incubations. The reaction is initiated by addition of membrane protein. Non-specific binding is determined in the presence of 10 μM of the corresponding non-radioactive prostanoid. Incubations are conducted for 60-90 min at room temperature or 30° C. and terminated by rapid filtration. Specific binding is calculated by subtracting non specific binding from total binding. The residual specific binding at each ligand concentration is calculated and expressed as a function of ligand concentration in order to construct sigmoidal concentration-response curves. The binding affinity of the compounds is determined by calculating the equilibrium inhibition constant (Ki) from the equation Ki=InPt/1+[radioligand]/Kd where Kd is the equilibrium dissociation constant for the radioligand:receptor interaction and InPt is the inflection point of the dose-response curves.

Sequence of EP4 receptor (P35408 whole entry): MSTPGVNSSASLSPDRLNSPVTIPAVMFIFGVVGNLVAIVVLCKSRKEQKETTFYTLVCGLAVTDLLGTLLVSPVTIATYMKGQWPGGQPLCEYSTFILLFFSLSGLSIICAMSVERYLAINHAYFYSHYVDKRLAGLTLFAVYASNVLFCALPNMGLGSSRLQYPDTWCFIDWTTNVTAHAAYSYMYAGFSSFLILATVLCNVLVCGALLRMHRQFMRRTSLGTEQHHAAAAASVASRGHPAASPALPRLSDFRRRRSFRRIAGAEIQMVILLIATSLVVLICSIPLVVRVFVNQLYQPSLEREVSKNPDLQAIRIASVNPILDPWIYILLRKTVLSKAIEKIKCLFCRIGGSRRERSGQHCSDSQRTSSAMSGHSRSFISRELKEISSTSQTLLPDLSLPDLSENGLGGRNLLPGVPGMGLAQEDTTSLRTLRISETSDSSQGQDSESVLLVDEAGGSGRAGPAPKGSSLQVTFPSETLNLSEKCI

Ki [nM]	SMILES
0.8 ± 0.2	C[C@H](NC(=O)c1c(Cl)sc(Cl)c1Cc1cccc(C(F)(F)F)c1)c1ccc(C(=O)O)cc1 [Example 21, 4-{(1S)-1-[({2,5-dichloro-4-[3-(trifluoromethyl)benzyl]-3-thienyl}carbonyl)-amino]ethyl}benzoic acid]
0.6 ± 0.1	Cc1sc(C)c(C(=O)NC2(c3ccc(-c4nn[nH]n4)cc3)CC2)c1Cc1ccc(C(F)(F)F)cc1 [Example 14, 2,5-dimethyl-N-{1-[4-(2H-tetrazol-5-yl)phenyl]cyclopropyl}-4-[4-(trifluoromethyl)benzyl]thiophene-3-carboxamide]
0.71 ± 0.01	C[C@H](NC(=O)c1csc(Br)c1Cc1cccc(Cl)c1)c1ccc(C(=O)O)cc1 [Example 4, 4-[(1S)-1-({[5-bromo-4-(3-chlorobenzyl)-3-thienyl]carbonyl}amino)ethyl]benzoic acid]
30	Cc1sc(C)c(C(=O)NCc2ccc(C(=O)O)c(Cl)c2)c1Cc1cccc(Cl)c1 [Example 25, 2-chloro-4-[({[4-(3-chlorobenzyl)-2,5-dimethyl-3-thienyl]carbonyl}amino)-methyl]benzoic acid]
0.9 ± 0.2	C[C@@H](NC(=O)c1c(Cl)sc(Cl)c1Cc1cccc(Cl)c1)c1ccc(C(=O)O)cc1 [Example 20, 4-[(1R)-1-({[2,5-dichloro-4-(3-chlorobenzyl)-3-thienyl]carbonyl}amino)-ethyl]benzoic acid]
51	C[C@H](NC(=O)c1c(Cl)sc(Cl)c1C(OC1CCCCO1)c1cccc(Cl)c1)c1ccc(C(=O)O)cc1 (stereo partly drawn) [Example 8]
0.47 ± 0.01	C[C@H](NC(=O)c1c(Br)sc(Br)c1Cc1cccc(Cl)c1)c1ccc(C(=O)O)cc1 [Example 5, 4-[(1S)-1-({[2,5-dibromo-4-(3-chlorobenzyl)-3-thienyl]carbonyl}amino)ethyl]benzoic acid]
7.4 ± 1.3	C[C@H](NC(=O)c1c(Cl)sc(Cl)c1C(=O)c1cccc(Cl)c1)c1ccc(C(=O)O)cc1 [Example 10, 4-[(1S)-1-({[2,5-dichloro-4-(3-chlorobenzoyl)-3-thienyl]carbonyl}amino)ethyl]benzoic acid]
133	Cc1sc(C)c(C(=O)N[C@@H](C)c2ccc(C(=O)NS(=O)(=O)c3ccccc3)cc2)c1Cc1ccc(C(F)(F)F)cc1 [Example 19, 2,5-dimethyl-N-[(1S)-1-(4-{[(phenylsulfonyl)amino]carbonyl}phenyl)ethyl]-4-[4-(trifluoromethyl)benzyl]thiophene-3-carboxamide]
308	Cc1sc(C)c(C(=O)N[C@@H](C)c2ccc(C(=O)NS(C)(=O)=O)cc2)c1Cc1ccc(C(F)(F)F)cc1 [Example 18, 2,5-dimethyl-N-[(1S)-1-(4-{[(methylsulfonyl)amino]carbonyl}phenyl)ethyl]-4-[4-(trifluoromethyl)benzyl]thiophene-3-carboxamide]
1.8	C[C@H](NC(=O)c1c(Cl)sc(Cl)c1C(O)c1cccc(Cl)c1)c1ccc(C(=O)O)cc1 (stereo partly drawn) [Example 9, 4-{(1S)-1-[({2,5-dichloro-4-[(3-chlorophenyl)(hydroxy)methyl]-3-thienyl}carbonyl)amino]ethyl}benzoic acid]
5.2 ± 1.1	CC(NC(=O)c1sc(Cl)cc1Cc1cccc(Cl)c1)c1ccc(C(=O)O)cc1 (stereo not drawn) [Example 1, 4-[1-({[5-chloro-3-(3-chlorobenzyl)-2-thienyl]carbonyl}amino)ethyl]-benzoic acid]
1.3 ± 0.6	C[C@H](NC(=O)c1c(Cl)sc(Cl)c1Cc1cccc(Cl)c1)c1ccc(C(=O)O)cc1 [Example 7, 4-[(1S)-1-({[2,5-dichloro-4-(3-chlorobenzyl)-3-thienyl]carbonyl}amino)ethyl]benzoic acid]
1.4 ± 0.4	Cc1sc(C)c(C(=O)N[C@@H](C)c2ccc(C(=O)O)cc2)c1Cc1ccc(C(F)(F)F)cc1 [Example 12, 4-{(1S)-1-[({2,5-dimethyl-4-[4-(trifluoromethyl)benzyl]-3-thienyl}carbonyl)amino]ethyl}benzoic acid]
0.9 ± 0.1	O=C(O)c1ccc(CNC(=O)c2c(Cl)sc(Cl)c2Cc2cccc(Cl)c2)cc1 [Example 22, 4-[({[2,5-dichloro-4-(3-chlorobenzyl)-3-thienyl]carbonyl}amino)-methyl]benzoic acid]
124	COC(=O)c1ccc([C@H](C)NC(=O)c2c(Cl)sc(Cl)c2Cc2cccc(Cl)c2)cc1 [Example 6, methyl 4-[(1S)-1-({[2,5-dichloro-4-(3-chlorobenzyl)-3-thienyl]carbonyl}amino)ethyl]benzoate]
7.9 ± 0.6	C[C@H](NC(=O)c1cscc1Cc1cccc(Cl)c1)c1ccc(C(=O)O)cc1 [Example 3, 4-[(1S)-1-({[4-(3-chlorobenzyl)-3-thienyl]carbonyl}amino)ethyl]benzoic acid]
0.7 ± 0.2	Cc1sc(C)c(C(=O)NC2(c3ccc(-c4nn[nH]n4)cc3)CC2)c1Cc1cccc(C(F)(F)F)c1 [Example 26, 2,5-dimethyl-N-{1-[4-(2H-tetrazol-5-yl)phenyl]cyclopropyl}-4-[3-(trifluoromethyl)benzyl]thiophene-3-carboxamide]
3.4 ± 0.2	Cc1sc(C)c(C(=O)N[C@@H](C)c2ccc(C(=O)O)cc2)c1Cc1ccc(Cl)cc1 [Example 30, 4-[(1S)-1-({[4-(4-chlorobenzyl)-2,5-dimethyl-3-thienyl]carbonyl}amino)-ethyl]benzoic acid]
2.6 ± 0.6	CC(NC(=O)c1sc(Cl)cc1Cc1cccc(Cl)c1)c1ccc(-c2nn[nH]n2)cc1 (stereo not drawn) [Example 2, 5-chloro-3-(3-chlorobenzyl)-N-{1-[4-(1H-tetrazol-5-yl)phenyl]ethyl}-thiophene-2-carboxamide]
0.8 ± 0.2	Cc1sc(C)c(C(=O)NC2(c3ccc(C(=O)O)cc3)CC2)c1Cc1cccc(C(F)(F)F)c1 [Example 28, 4-{1-[({2,5-dimethyl-4-[3-(trifluoromethyl)benzyl]-3-thienyl}carbonyl)-amino]cyclopropyl}benzoic acid]
0.5 ± 0.1	Cc1sc(C)c(C(=O)NC2(c3ccc(C(=O)O)cc3)CC2)c1Cc1ccc(C(F)(F)F)cc1 [Example 16, 4-{1-[({2,5-dimethyl-4-[4-(trifluoromethyl)benzyl]-3-thienyl}carbonyl)amino]cyclopropyl}benzoic acid]
2.4 ± 0.2	Cc1sc(C)c(C(=O)N[C@@H](C)c2ccc(C(=O)O)cc2)c1Cc1cccc(C(F)(F)F)c1 [Example 24, 4-{(1S)-1-[({2,5-dimethyl-4-[3-(trifluoromethyl)benzyl]-3-thienyl}carbonyl)-amino]ethyl}benzoic acid]
3.1 ± 0.4	Cc1sc(C)c(C(=O)N[C@@H](C)c2ccc(C(=O)O)cc2)c1Cc1cccc(Cl)c1 [Example 23, 4-[(1S)-1-({[4-(3-chlorobenzyl)-2,5-dimethyl-3-thienyl]carbonyl}amino)-ethyl]benzoic acid]

— patent publication US8969394B2, “Thiophenecarboxamide derivatives as EP4 receptor ligands” (Merck Frosst Canada Ltd., priority 2006, dated 2015)
